This assay has as its target T1, BTK enzyme (recombinant full-length BTK, hBTK) (Homo sapiens, UniProt Q06187).
T1 construct: recombinant protein from baculovirus-transfected Sf9 cells: full-length BTK, 6HIS-tag cleaved; 6HIS (cleaved yes); made in house; host or cells: baculovirus-transfected Sf9 cells
Put plainly: Btk enzyme activity assay, LANCE TR-FRET. Type of assay: biochemical. To be noted: 50 pM hBTK, 2 μM biotin-A5-peptide, 25 μM ATP; 60 minute compound & enzyme incubation; 120 minutes reaction; read-out: BTK binding potency IC50. How it is done: Btk Enzyme Activity Assay Methods
BTK enzymatic activity was determined with the LANCE (Lanthanide Chelate Excite) TR-FRET (lime-resolved fluorescence resonance energy transfer) assay. […] Phosphorylation reactions were allowed to proceed for 120 minutes. […] After 60 minutes incubation with detection reagents, reaction plates were read on a PerkinElmer EnVision plate reader using standard TR-FRET protocol. Briefly, excitation of donor molecules (Eu-chelate:anti-phospho-antibody) with a laser light source at 337 nm produces energy that can be transferred to Dylight-650 acceptor molecules if this donor:acceptor pair is within close proximity. Fluorescence intensity at both 665 nm (acceptor) and 615 nm (donor) are measured and a TR-FRET ratio calculated for each well (acceptor intensity/donor intensity). IC50 values were determined by 4 parameter robust fit of TR-FRET ratio values vs. (Log10) compound concentrations.
In general terms: In TR-FRET formats the signal depends on donor and acceptor labels being close together.
T1 sequence (Q06187 whole entry): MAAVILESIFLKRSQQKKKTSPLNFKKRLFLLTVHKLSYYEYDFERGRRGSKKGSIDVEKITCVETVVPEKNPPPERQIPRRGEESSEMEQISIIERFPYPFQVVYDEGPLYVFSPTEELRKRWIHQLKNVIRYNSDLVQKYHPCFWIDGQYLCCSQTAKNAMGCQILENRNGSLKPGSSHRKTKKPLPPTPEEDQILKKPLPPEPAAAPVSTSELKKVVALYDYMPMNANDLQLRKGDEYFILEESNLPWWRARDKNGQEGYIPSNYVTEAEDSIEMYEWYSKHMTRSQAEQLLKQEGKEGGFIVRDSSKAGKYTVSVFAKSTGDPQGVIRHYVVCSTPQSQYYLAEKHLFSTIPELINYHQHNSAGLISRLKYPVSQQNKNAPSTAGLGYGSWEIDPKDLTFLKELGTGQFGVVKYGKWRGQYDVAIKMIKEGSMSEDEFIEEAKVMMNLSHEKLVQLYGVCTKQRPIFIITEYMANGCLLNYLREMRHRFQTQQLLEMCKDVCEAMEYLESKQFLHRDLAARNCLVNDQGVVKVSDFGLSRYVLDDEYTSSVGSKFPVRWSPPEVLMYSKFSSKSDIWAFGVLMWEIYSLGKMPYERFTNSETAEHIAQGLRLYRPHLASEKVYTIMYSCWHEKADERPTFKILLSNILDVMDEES
Usually IC50 stands for the concentration that inhibits the measured activity by half. As for `NC(=O)c1cnc(N2CCCC3(C2)C(=O)NCC3O)c2c1[nH]c1ccccc12` (mixture of isomers) [Example 86, 1-(4-hydroxy-1-oxo-2,7-diazaspiro[4.5]decan-7-yl)-5H-pyrido[4,3-b]indole-4-carboxamide], the 50% inhibitory concentration (IC50) was 170 nM.

As for `NC(=O)c1cnc(N2CCCC3(CCNC3=O)C2)c2c1[nH]c1cc(C3CCNCC3)ccc12` (stereo not drawn) [Example 42, 1-(1-oxo-2,7-diazaspiro[4.5]decan-7-yl)-7-(piperidin-4-yl)-5H-pyrido[4,3-b]indole-4-carboxamide], the concentration for half-maximal inhibition (IC50) is 1.4 nM.

Take `CC(C)N1CCC(c2ccc3[nH]c4c(C(N)=O)cnc(N5CCCC6(CCNC6=O)C5)c4c3c2)CC1` (stereo not drawn) [Example 50, 8-[1-(1-methylethyl)piperidin-4-yl]-1-(1-oxo-2,7-diazaspiro[4.5]dec-7-yl)-5H-pyrido[4,3-b]indole-4-carboxamide]: the IC50 worked out at 58.7 nM.

Consider `NC(=O)c1cnc(N2CCC[C@]3(CCCN(c4ccc(F)cc4)C3=O)C2)c2c1[nH]c1ccccc12` [Example 2, (S)-1-(8-(4-fluorophenyl)-7-oxo-2,8-diazaspiro[5.5]undecan-2-yl)-5H-pyrido[4,3-b]indole-4-carboxamide], for which the IC50 stood at 12.9 nM.

Turning to `COc1cc(-c2ccc3c(c2)[nH]c2c(C(N)=O)cnc(N4CCC[C@@]5(CCN(C)C5=O)C4)c23)ccn1` [Example 75, 7-(2-methoxypyridin-4-yl)-1-[(5R)-2-methyl-1-oxo-2,7-diazaspiro[4.5]dec-7-yl]-5H-pyrido[4,3-b]indole-4-carboxamide], the IC50 is 9.5 nM.

On to `CC(C)(C)c1ccc(C(=O)N2CCCC3(CCCCN3c3ncc(C(N)=O)c4[nH]c5ccccc5c34)C2)cc1` (stereo not drawn) [Example 25, 1-{8-[(4-tert-butylphenyl)carbonyl]-1,8-diazaspiro[5.5]undec-1-yl}-5H-pyrido[4,3-b]indole-4-carboxamide], for which the 50% inhibitory concentration (IC50) was found to be 536 nM.

On to `NC(=O)c1cnc(N2CCC3(CCNC3)CC2)c2c1[nH]c1ccccc12` [Example 12, 1-(2,8-diazaspiro[4.5]dec-8-yl)-5H-pyrido[4,3-b]indole-4-carboxamide], for which the IC50 stood at 35 nM.

On to `NC(=O)c1cnc(N2CCCC3(CCN(c4ccc(F)cc4)C3=O)C2)c2c1[nH]c1ccccc12` (stereo not drawn) [Example 32, 1-[2-(4-fluorophenyl)-1-oxo-2,7-diazaspiro[4.5]dec-7-yl]-5H-pyrido[4,3-b]indole-4-carboxamide], for which the 50% inhibitory concentration (IC50) amounted to 244 nM.

Consider `CN1CC[C@@]2(CCCN(c3ncc(C(N)=O)c4[nH]c5cc(-c6cccc(C(O)C(F)(F)F)c6)ccc5c34)C2)C1=O` (stereo partly drawn) [Example 79, 1-[(5R)-2-methyl-1-oxo-2,7-diazaspiro[4.5]dec-7-yl]-7-[3-(2,2,2-trifluoro-1-hydroxyethyl)phenyl]-5H-pyrido[4,3-b]indole-4-carboxamide], for which the IC50 was 63 nM.

With `NC(=O)c1cnc(N2CCC[C@]3(C2)C(=O)NC[C@@H]3O)c2c1[nH]c1ccccc12` [Example 24, 1-[(4R,5R)-4-hydroxy-1-oxo-2,7-diazaspiro[4.5]dec-7-yl]-5H-pyrido[4,3-b]indole-4-carboxamide], the IC50 is 9 nM.

With `NC(=O)c1cnc(N2CCCC3(C2)NCCNC3=O)c2c1[nH]c1ccccc12` (stereo not drawn) [Example 87, 1-(5-oxo-1,4,8-triazaspiro[5.5]undecan-8-yl)-5H-pyrido[4,3-b]indole-4-carboxamide], the 50% inhibitory concentration (IC50) came out at 82.8 nM.

With `CC(C)(C)c1ccc(N2CCC3(CCCN(c4ncc(C(N)=O)c5[nH]c6ccccc6c45)C3)C2=O)cc1` (stereo not drawn) [Example 36, 1-[2-(4-tert-butylphenyl)-1-oxo-2,7-diazaspiro[4.5]dec-7-yl]-5H-pyrido[4,3-b]indole-4-carboxamide], the IC50 was 9530 nM.

On to `NC(=O)c1cnc(N2CCCC3(CCCN(c4ccc(F)cc4)C3=O)C2)c2c1[nH]c1ccccc12` (stereo not drawn) [Example 4, 1-[8-(4-fluorophenyl)-7-oxo-2,8-diazaspiro[5.5]undec-2-yl]-5H-pyrido[4,3-b]indole-4-carboxamide], for which the concentration for half-maximal inhibition (IC50) worked out at 17 nM.

`CC(C)(C)OC(=O)N1CCC(c2ccc3[nH]c4c(C(N)=O)cnc(N5CCCC6(CCNC6=O)C5)c4c3c2)CC1` (stereo not drawn) [Example 46, tert-butyl 4-[4-carbamoyl-1-(1-oxo-2,7-diazaspiro[4.5]dec-7-yl)-5H-pyrido[4,3-b]indol-8-yl]piperidine-1-carboxylate]: the half-inhibitory concentration (IC50) stood at 377 nM.

As to `COC(=O)N1CCC(c2ccc3[nH]c4c(C(N)=O)cnc(N5CCCC6(CCNC6=O)C5)c4c3c2)CC1` (stereo not drawn) [Example 51, methyl 4-[4-carbamoyl-1-(1-oxo-2,7-diazaspiro[4.5]dec-7-yl)-5H-pyrido[4,3-b]indol-8-yl]piperidine-1-carboxylate], the IC50 was found to be 87.9 nM.

Take `NC(=O)c1cnc(N2CCC3(CC2)CNC3)c2c1[nH]c1ccccc12` [Example 19, 1-(2,7-diazaspiro[3.5]non-7-yl)-5H-pyrido[4,3-b]indole-4-carboxamide]: the half-inhibitory concentration (IC50) is 22 nM.

On to `CS(=O)(=O)N1CCC(c2ccc3c(c2)[nH]c2c(C(N)=O)cnc(N4CCCC5(CCNC5=O)C4)c23)CC1` (stereo not drawn) [Example 57, 7-[1-(methylsulfonyl)piperidin-4-yl]-1-(1-oxo-2,7-diazaspiro[4.5]dec-7-yl)-5H-pyrido[4,3-b]indole-4-carboxamide], for which the IC50 is 2.1 nM.

With `CN1CC[C@@]2(CCCN(c3ncc(C(N)=O)c4[nH]c5cc(C6CCN(CC(C)(C)O)CC6)ccc5c34)C2)C1=O` [Example 77, 7-[1-(2-hydroxy-2-methylpropyl)piperidin-4-yl]-1-[(5R)-2-methyl-1-oxo-2,7-diazaspiro[4.5]dec-7-yl]-5H-pyrido[4,3-b]indole-4-carboxamide], the IC50 came out at 0.55 nM.

As to `NC(=O)c1cnc(N2CCCC3(CCNC3=O)C2)c2c1[nH]c1ccc(C3CCN(CC(=O)O)CC3)cc12` (stereo not drawn) [Example 48, {4-[4-carbamoyl-1-(1-oxo-2,7-diazaspiro[4.5]dec-7-yl)-5H-pyrido[4,3-b]indol-8-yl]piperidin-1-yl}acetic acid], the concentration for half-maximal inhibition (IC50) was found to be 47.6 nM.

For `NC(=O)c1cnc(N2CCCC3(C2)OCCN(c2ccc(F)cc2)C3=O)c2c1[nH]c1ccccc12` (stereo not drawn) [Example 3, 1-(4-(4-fluorophenyl)-5-oxo-1-oxa-4,8-diazaspiro[5.5]undecan-8-yl)-5H-pyrido[4,3-b]indole-4-carboxamide], the IC50 is 109 nM.

Regarding `CC(C)(C)OC(=O)N1CCC(c2ccc3c(c2)[nH]c2c(C(N)=O)cnc(N4CCCC5(CCNC5=O)C4)c23)CC1` (stereo not drawn) [Example 43, tert-butyl 4-[4-carbamoyl-1-(1-oxo-2,7-diazaspiro[4.5]dec-7-yl)-5H-pyrido[4,3-b]indol-7-yl]piperidine-1-carboxylate], the IC50 was determined as 7.4 nM.

On to `CNC(=O)N1CCC(c2ccc3[nH]c4c(C(N)=O)cnc(N5CCCC6(CCNC6=O)C5)c4c3c2)CC1` (stereo not drawn) [Example 47, 8-[1-(methylcarbamoyl)piperidin-4-yl]-1-(1-oxo-2,7-diazaspiro[4.5]dec-7-yl)-5H-pyrido[4,3-b]indole-4-carboxamide], for which the IC50 worked out at 72.6 nM.

As to `NC(=O)c1cnc(N2CCCC3(CCCNC3=O)C2)c2c1[nH]c1ccccc12` (stereo not drawn) [Example 30, 1-(7-oxo-2,8-diazaspiro[5.5]undec-2-yl)-5H-pyrido[4,3-b]indole-4-carboxamide], the 50% inhibitory concentration (IC50) was 28 nM.

Consider `NC(=O)c1cnc(N2CCCC3(CCNC3=O)C2)c2c1[nH]c1ccc(C3CCNCC3)cc12` (stereo not drawn) [Example 45, 1-(1-oxo-2,7-diazaspiro[4.5]dec-7-yl)-8-piperidin-4-yl-5H-pyrido[4,3-b]indole-4-carboxamide], for which the IC50 worked out at 204 nM.

Turning to `NC(=O)c1cnc(N2CCC[C@@]3(C2)C(=O)NC[C@@H]3O)c2c1[nH]c1ccccc12` [Example 18, 1-[(4R,5S)-4-hydroxy-1-oxo-2,7-diazaspiro[4.5]dec-7-yl]-5H-pyrido[4,3-b]indole-4-carboxamide], the IC50 stood at 117 nM.

With `CC(C)N1CCC(c2ccc3c(c2)[nH]c2c(C(N)=O)cnc(N4CCCC5(CCNC5=O)C4)c23)CC1` (stereo not drawn) [Example 52, 7-[1-(1-methylethyl)piperidin-4-yl]-1-(1-oxo-2,7-diazaspiro[4.5]dec-7-yl)-5H-pyrido[4,3-b]indole-4-carboxamide], the IC50 was 0.96 nM.

With `NC(=O)c1cnc(N2CCC[C@@]3(CCNC3=O)C2)c2c1[nH]c1cc(C3CCC(=O)NC3)ccc12` (stereo partly drawn) [Example 73, 1-[(5R)-1-oxo-2,7-diazaspiro[4.5]dec-7-yl]-7-(6-oxopiperidin-3-yl)-5H-pyrido[4,3-b]indole-4-carboxamide], the IC50 was found to be 0.74 nM.

Regarding `COC(=O)CCN1CCCC2(CCCN(c3ncc(C(N)=O)c4[nH]c5ccccc5c34)C2)C1=O` (stereo not drawn) [Example 31, methyl 3-[8-(4-carbamoyl-5H-pyrido[4,3-b]indol-1-yl)-1-oxo-2,8-diazaspiro[5.5]undec-2-yl]propanoate], the IC50 amounted to 96.8 nM.

Turning to `CC(C)(O)CN1CCC(c2ccc3c(c2)[nH]c2c(C(N)=O)cnc(N4CCC[C@@]5(CCNC5=O)C4)c23)CC1` [Example 72, 7-[1-(2-hydroxy-2-methylpropyl)piperidin-4-yl]-1-[(5R)-1-oxo-2,7-diazaspiro[4.5]dec-7-yl]-5H-pyrido[4,3-b]indole-4-carboxamide], the half-inhibitory concentration (IC50) was 0.63 nM.

For the molecule `CC(C)N1CCC(c2ccc3c(c2)[nH]c2c(C(N)=O)cnc(N4CCC[C@@]5(CCN(C)C5=O)C4)c23)CC1` [Example 76, 7-[1-(1-methylethyl)piperidin-4-yl]-1-[(5R)-2-methyl-1-oxo-2,7-diazaspiro[4.5]dec-7-yl]-5H-pyrido[4,3-b]indole-4-carboxamide], the 50% inhibitory concentration (IC50) was found to be 0.64 nM.

Values taken from US20180141962A1, “AZACARBAZOLE BTK INHIBITORS” (MERCK SHARP & DOHME CORP., priority 2015, published 2018).
